Experiment [1] deals with Human primary myoblasts (healthy donors 3, 1 and 5). Description: MyoScreen hypertrophy assay on myotubes from healthy donors. It is filed as cell-based. To be noted: for EC50: Homo sapiens, Myoblast, read-out: EC50; for EC50 / % Activity: second dose response assay. How it is done: (§1) Healthy donor primary skeletal cells (Donor 1, Donor 3 and Donor 5) were Clonetics™ Human Skeletal Muscle Myoblasts (HSMM). In addition, cells from three DMD (Duchenne muscular dystrophy) donors (Donor Z, W and D1) and from a healthy donor (Donor A) were sourced.
(§2) Hypertrophy and Atrophy Rescue assays were performed using an in vitro fully automated human myotube model called MyoScreen™ (Cytoo, France). This model relies on a tight control of the microenvironment that guides the differentiation of human primary myoblasts. Myotubes formed on MyoScreen™ micropatterns present a high level of maturation together with a highly standardized morphology.
(§3) Human primary myoblasts from donors were seeded in MyoScreen™ micropatterned 96-well plates (Cytoo, France), let them adhere for 24 h in growth medium, then run the differentiation in a low horse serum medium for at least 5 days.
(§4) At Day 0, MyoScreen™ plates (Cytoo, France) containing micropatterns were pre-filled with 200 μl/well of growth medium and stored in the incubator at 37° C. Human primary myoblasts were detached from the flasks, count, and seeded into the plates with 15 000 cells per well in 100 μl of growth medium.
(§5) At Day 1, the growth medium was changed for a differentiation medium, 300 μl/well (DMEM with 0.1% horse serum) in which myoblasts started differentiating and forming myotubes.
(§6) At Day 2, the differentiation medium was changed. Then candidate compounds were diluted with differentiation medium and transferred into the plate. The final concentration of DMSO should be not higher than 0.1%. At least 6 wells were treated with the vehicle as a basal control, and 6 wells were treated with IGF-1 at 100 ng/ml as positive hypertrophy control.
(§7) At Day 6, cells were fixed with formalin 5% for 30 min at room temperature, then permeabilized with Triton X-100 at 0.1% in PBS for 15 min, and blocked with PBS+BSA 1% for 20 minutes. Myotubes were incubated with first antibody against Troponin T in blocking buffer for 1 h30, washed three times with PBS, incubated with secondary antibody and Hoescht ( 1/10000) for 1 h30, and washed three times with PBS.
(§8) Images were acquired at 10× magnification with an Operetta High Content Imaging System. Image processing and analysis were performed with dedicated algorithms developed on the Acapella High Content Imaging Software (Perkin Elmer) by CYTOO. Eleven fields per well were acquired.
First, segmentation of myotubes and nuclei were done using respectively the Troponin T staining intensity and the Hoechst staining. […] The threshold of segmentation was set-up in order to avoid detecting the background noise and eliminate aberrant small myotube structures.
(§9) Then, an image clean-up step was performed on the Troponin T images in order to remove myotubes that touch the border of the image. The final valid myotubes were used to extract myotube morphology parameters including the myotube width and area, and the number of nuclei per myotube.
Nuclei Count, Fusion Index, Mean myotube Area and Number of nuclei per myotube have been validated as relevant and sensitive readouts of myotube differentiation as well as atrophic and hypertrophic induction.
A primary screening was run to identify hypertrophy compounds that increase the myotube differentiation and size. Candidate compounds were tested at 10 μM in monoplicate on Donor 3 cells.
A retest was run, by cherry picking (same compound batch as primary screening): each hit was tested in the same conditions as in the Primary Screening (Donor 3, 10 μM) in six well replicates.

Experiment [2] has as its system cells from DMD donors (Donor Z, W and D1). Kind of experiment: MyoScreen hypertrophy assay on myotubes from DMD donors. It is filed as cell-based, human. Conditions: fusion index (compound)*100/basal control; for Donor W (% Activity): DMD Donor W; for Donor Z (% Activity): DMD Donor Z. How it is done: as §1, §2, §3, §4, §5, §6, §7, §8
(§10) First, segmentation of myotubes and nuclei were done using respectively the Troponin T staining intensity and the Hoechst staining. One to two myotubes per micropattern were usually identified (a myotube is a troponin T staining area that includes at least 2 nuclei). The threshold of segmentation was set-up in order to avoid detecting the background noise and eliminate aberrant small myotube structures. At the end of this first step, specific readouts were calculated in the whole well, like the nuclei count and the fusion index (percentage of nuclei included in troponin T staining) Usually around 50 to 60 myotubes were detected per well in a control condition.
as §9

Experiment [3] relates to Donor Z (DMD donor) myotubes. Description: Hypertrophy assay, combinations ALK5 inhibitor and glucocorticoid. It counts as cell-based, human. To be noted: 4 days of treatment, prednisolone 10 nM, RepSox or GW788388 300 nM, alone or combined.
For experiment [4], the system named is ACh-stimulated myotubes. Description: Calcium flux assay after ACh stimulation. It counts as cell-based, human. To be noted: 20 μM ACh stimulation; myotubes differentiated 8 days, 7 days with compound. How it is done:
Cells were then incubated for 1 h with 2 μM Fluo-4 AM (F14201-Invitrogen) in an incubator (37° C., 5% CO2). After washing to remove unloaded dye, myotube responses to 20 μM ACh (A6625-Sigma-Aldrich), were videoimaged. Stream acquisitions were set at 1 sec intervals and one field of view was acquired per well. Images were processed and analyzed automatically using a dedicated software developed in-house integrating the open-source ImageJ framework. The image analysis tool segments the myotubes in images acquired in the same well. The Fluo-4 total fluorescence intensity was measured inside each myotube and corrected for background. The total intensity was normalized to the myotube area to obtain the mean fluorescence intensity readout.
A general note: Calcium flux is commonly read through the fluorescence of an indicator in the cells.

Experiment [5] deals with myotubes stimulated with 100 μM ACh. Kind of experiment: Contractile activity assay. It is filed as cell-based, human. Conditions: 5 days of differentiation including 4 days (96 h) treatment, RepSox 2 μM. How it is done: Cells were washed with calcium buffer as above. Myotube contraction was induced by addition of 100 μM ACh for 3 mins after which myotubes were fixed and immunostained with troponin T antibody. Automated acquisition was performed on the Operetta platform with a x10/0.3 NA objective. Detaching myotubes were automatically detected and quantified using Acapella, based on the detection of high intensity regions within the edges of segmented myotubes that mark the spots where the myotubes detached.

The test system of experiment [6] is Myotubes from the healthy donor 3 atrophied by TNF-α, IL-1β, Myostatin, TGF-β or dexamethasone. Kind of experiment: Atrophy rescue assay (MyoScreen). It counts as cell-based, human. The arrangement: key: +++: total rescue; ++: partial rescue; +: low rescue. How it is done:
as §2, §3, §4, §5, §6
For Atrophy Rescue assay, one hour after candidate compound addition, atrophy inducers were added at the following final concentration: 150 ng/mL of myostatin, 25 ng/mL of IL-1β, 2 ng/mL of TNF-α, 0.5 ng/mL of TGF-β and 100 μM of dexamethasone.
as §7, §8, §10, §9
Atrophy Rescue assays were performed in triplicate in the presence of atrophy inducers, i.e. TNF-α, IL-1β, Myostatin, TGF-β and dexamethasone.
Atrophy rescue assays was performed for RepSox. Myotubes from the healthy donor 3 were atrophied using different inducers: TNF-α, IL-1β, Myostatin, TGF-β and dexamethasone.

Experiment [7] concerns AChR clusters in MyoScreen myotubes. Kind of experiment: Acetylcholine receptor clustering assay. It is filed as cell-based, human. To be noted: 8 days of differentiation including 7 days of drug treatment; vs control myotubes. How it is done:
The MyoScreen™ protocol was performed as described in the Hypertrophy and Atrophy rescue assay described in Example 1 but was stopped at Day 9 instead of Day 6. At the end of the assay, AchR were immunostained using a specific antibody in addition to Troponin T and nuclei. Images were acquired at ×20 with an Operetta High Content Imaging System from Perkin Elmer. Image processing and analyses were performed with a dedicated algorithm developed on the Acapella High Content Imaging Software (Perkin Elmer). Specific readouts were calculated in each well: nuclei count and myotube fusion index, number of AchR, AchR mean area, AchR total area normalized by the myotube total area.
Remarkably, when labeled with a specific anti-AChR antibody, MyoScreen myotubes at 6 days post-differentiation display AChR clusters punctuated along the sarcolemma membrane in the middle of the myotube fibre and in distinct regions at the ends of myotubes. To develop an automated AChR cluster assay, an AChR detection routine was developed that was sensitive and robust enough to analyze aggregate number and size clusters in images using the Operetta/Acapella system.

The results in this text go back to patent US12303498B2, “ALK5 inhibitors as skeletal muscle hypertrophy inducers” (CYTOO, priority 2018, dated 2025).

Bounds are passed on as bounds.

Take `Cc1cccc(-c2nn(C(=S)Nc3ccccc3)cc2-c2ccnc3ccccc23)n1` [A 83-01]: in experiment [1] (healthy Donor 3), the EC50 came out at 10 nM and the “% Activity” value stood at 127%.
For `NC(=O)c1ccc(-c2nc(-c3ccccn3)c(-c3ccc4c(c3)OCCO4)[nH]2)cc1` [D 4476], in experiment [1] (healthy Donor 3), the EC50 is < 1 nM and the “% Activity” value amounted to 128%.
As for `O=C(NC1CCOCC1)c1ccc(-c2cc(-c3c[nH]nc3-c3ccccn3)ccn2)cc1` [GW 788388], in experiment [2], the “Donor W (% Activity)” value was 118% and the “Donor Z (% Activity)” value was 196%. For the same compound, in experiment [1] (healthy Donor 3), the EC50 came to 88 nM and the “% Activity” value is listed as 130%.
Take `c1ccc(-c2n[nH]cc2-c2ccnc3ccccc23)nc1` [LY 364947]: in experiment [1] (healthy Donor 3), the EC50 came to 25 nM.
For `C[C@]12C=CC(=O)C=C1CC[C@@H]1[C@@H]2[C@@H](O)C[C@@]2(C)[C@H]1CC[C@]2(O)C(=O)CO` [Prednisolone, prednisolone], in experiment [3], the “increase in Fusion index” value came to 25% and the “increase in Myotube mean area” value is reported as “does not enhance significantly”.
Take `Cc1cccc(-c2n[nH]cc2-c2ccc(F)c(-c3cnn(CCO)c3)c2)n1` [R268712]: in experiment [1] (healthy Donor 3), the EC50 was determined as 1 nM and the “% Activity” value is 132%.
The corresponding values for `Cc1cccc(-c2[nH]c(C(C)(C)C)nc2-c2ccc3c(c2)OCO3)n1` [SB 505124] are < 1 nM and 136%.
The corresponding values for `Cc1cccc(-c2nc(C(C)(C)C)[nH]c2-c2ccc3nccnc3c2)n1` [SB 525334] are 3 nM and 142%.
The corresponding values for `Fc1ccc(Cl)cc1-c1nc(Nc2ccncc2)c2nccnc2n1` [SD208] are 65 nM and 138%.
For “IGF-1: IGF-1 at 100 ng/ml as positive hypertrophy control”, the “increase in [Ca2+]i peak amplitude compared to control myotubes” value in experiment [4] was “no effect”. Also, the “active contractile force (percentage of myotubes that exhibit strong contractions)” value in experiment [5] amounted to 67±5%. Also, in experiment [6] (atrophy inducer IL-1β 25 ng/mL), the “atrophy rescue, IL-1” value is “+++”. Moreover, the “atrophy rescue, TGF-β” value in experiment [6] (atrophy inducer TGF-β 0.5 ng/mL) is “++”. Besides, in experiment [6] (atrophy inducer TNF-α 2 ng/mL), the “atrophy rescue, TNF-alpha” value is listed as “+++”. Moreover, the “atrophy rescue, dexamethasone” value in experiment [6] (atrophy inducer dexamethasone 100 μM) is reported as “+++”. Also, the “atrophy rescue, Myostatin” value in experiment [6] (atrophy inducer myostatin 150 ng/mL) is given as “+++”. The “Donor D1 (% Activity)” value in experiment [2] (DMD Donor D1) is reported as 163%. Also, in experiment [2], the “Donor W (% Activity)” value came out at 100% and the “Donor Z (% Activity)” value was 143%. Further, the “Donor 1 % Activity” value in experiment [1] (first dose response assay, healthy Donor 1) came to 150%. Further, the “Donor 3 % Activity” value in experiment [1] (first dose response assay, healthy Donor 3) was 178%. Further, in experiment [1] (first dose response assay, healthy Donor 5), the “Donor 5 % Activity” value stood at 185%. Besides, the “Primary screening (% Activity)” value in experiment [1] (healthy Donor 3, 10 μM, monoplicate (IGF-1 100 ng/ml), % Activity = Myotube fusion index (compound)*100/Myotube Fusion index (basal control)) is on record as 210%. Besides, the “Retest (% Activity)” value in experiment [1] (healthy Donor 3, 10 μM, six well replicates (IGF-1 100 ng/ml), fusion index vs basal control) came to 190%. The “% Activity” value in experiment [1] (healthy Donor 3) was 178%. Moreover, in experiment [3], the “increase in Fusion index” value is 160% and the “increase in Myotube mean area” value is 54%. Moreover, the “total AChR area increase” value in experiment [7] was “no effect”.

Broadly, the EC50 is the concentration needed to bring the measured effect to its halfway point.
